Assay results as given in paper PMC9610990, “Inhibitory Activity of Bioactive Phloroglucinols from the Rhizomes of Dryopteris crassirhizoma on Escherichia coli β-Glucuronidase: Kinetic Analysis and Molecular Docking Studies” (Metabolites, 2022).
Like-named read-outs stand apart in the source and are kept apart here.

Assays:
[1] = target: T1, β-Glucuronidase from E. coli (Escherichia coli, UniProt P05804); experiment: β-Glucuronidase inhibitory activity assay with PNPG substrate; conditions: for inhibition at 100 µM: read-out: Inhibition of Compounds on β-glucuronidase, Inhibition at 100 μM (%); for Inhibition of Compounds on β-glucuronidase, Inhibition at 100 μM (%): compound at 100 μM
T1 sequence (P05804 whole entry): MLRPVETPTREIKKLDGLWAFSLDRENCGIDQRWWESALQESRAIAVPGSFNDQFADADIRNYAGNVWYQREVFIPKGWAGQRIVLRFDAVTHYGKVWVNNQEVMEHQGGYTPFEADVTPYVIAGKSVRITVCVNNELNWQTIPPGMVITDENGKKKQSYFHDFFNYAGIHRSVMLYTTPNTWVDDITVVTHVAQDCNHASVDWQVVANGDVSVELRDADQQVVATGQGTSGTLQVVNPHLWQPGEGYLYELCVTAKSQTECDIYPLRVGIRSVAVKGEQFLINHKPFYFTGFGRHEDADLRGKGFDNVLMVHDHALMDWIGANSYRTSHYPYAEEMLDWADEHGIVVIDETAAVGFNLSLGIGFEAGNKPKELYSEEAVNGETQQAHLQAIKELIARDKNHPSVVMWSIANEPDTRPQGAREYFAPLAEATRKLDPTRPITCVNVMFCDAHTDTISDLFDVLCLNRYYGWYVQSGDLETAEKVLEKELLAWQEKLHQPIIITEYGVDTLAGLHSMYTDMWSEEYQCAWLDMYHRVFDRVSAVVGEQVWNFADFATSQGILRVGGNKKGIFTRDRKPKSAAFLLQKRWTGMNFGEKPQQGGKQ

[2] = target: T1, β-Glucuronidase from E. coli; experiment: Inhibition kinetic analysis with β-glucuronidase (Lineweaver–Burk and Dixon plots); type: biochemical; conditions: for Ki: determined by Dixon plots; for Inhibition Type: determined by Lineweaver–Burk plots
Protocol: To identify the inhibition mode of the active compounds on β-glucuronidase, two enzyme kinetic methodologies, the Lineweaver-Burk and Dixon methods, were used. The mode of β-glucuronidase inhibition was determined using a Lineweaver–Burk plot (or double reciprocal plot) at various concentrations of the substrate in the absence or presence of the test compound (concentrations: 0, 10, 20, 40, 60, and 80 µM for 13 and 15; 0, 7.5, 15, 30, 60, and 80 µM for 14; 0, 5, 10, 20, 40, and 60 µM for 26 and 27; and 0, 2.5, 5, 10, 20, and 40 µM for 28). The enzymatic reactions at various concentrations of the test compounds were evaluated by monitoring the effects of different substrate concentrations using Dixon plots (or single reciprocal plots) (0.25, 0.5, 1, and 2.5 mM). Ki values were determined by analyzing the Dixon plot, where the x-axis value was taken as Ki.

[3] = tested on: neuraminidase of influenza virus H5N1; conditions: read-out: inhibitory effect on neuraminidase IC50; cited from earlier work
PTP1B enzyme = tested on: PTP1B enzyme; parameters: method as in PMID 34416263; conditions: in words; cited from earlier work
[4] = tested on: B16F10 murine melanoma cells; parameters: method as in doi:10.1016/j.phytol.2017.05.022; conditions: read-out: inhibition of melanin production IC50; cited from earlier work
[5] = PNPG substrate, mean ± SEM of three independent experiments
[6] = read-out: Inhibition of Compounds on β-glucuronidase, IC50, PNPG substrate, mean ± SEM of three independent experiments

Compound | IC50 [1] | inhibition at 100 µM [1] | further results
CCC(=O)c1c(O)cc(O)c(C(=O)CC)c1O [Compound 5, 1,3-(2,4,6-trihydroxyphenyl)dipropanone] | > 100 µM | 27.1 ± 0.4% | 
1-(2,4,6-trihydroxy-3-methylphenyl)propanone [Compound 7] |  |  | Inhibition of Compounds on β-glucuronidase, Inhibition at 100 μM (%) [1, 5]: 26.7 ± 1.5%; IC50 [1, 6]: > 100 µM
CCCC(=O)c1c(O)cc(O)c(Cc2c(O)c(CC3=C(O)C(C)(C)C(O)=C(C(C)=O)C3=O)c(O)c(C(=O)CCC)c2O)c1O [Compound 26, nortrisflavaspidic acid ABB] | 8 ± 1.8 µM | 98.1 ± 2.5% | Ki [2]: 7.5 µM; Inhibition Type [2]: Competitive; IC50 [3]: 51.5 µM; activity toward the PTP1B enzyme (PTP1B enzyme): significant activity
CCCC(=O)c1c(O)cc(O)c(CC2=C(O)C(C)(C)C(O)=C(C(=O)CC)C2=O)c1O [Compound 18, norflavaspidic acid PB] | > 100 µM | 42.2 ± 0.1% | IC50 [4]: 35.7 µM
CCCC(=O)c1c(O)c(CC2=C(O)C(C)(C)C(O)=C(C(C)=O)C2=O)c(O)c(Cc2c(O)c(CC3=C(O)C(C)(C)C(O)=C(C(C)=O)C3=O)c(O)c(C(=O)CCC)c2O)c1O [Compound 30, dryocrassin ABBA] | 94.9 ± 2.5 µM | 51.8 ± 2.7% | 
CCCC(=O)c1c(O)cc(O)c(-c2c(O)cc(O)c(C(=O)CCC)c2O)c1O [Compound 12, bis-phlorobutyrophenone] | > 100 µM | 34.1 ± 0.5% | 
CCCC(=O)c1c(O)cc(O)c(C(=O)CCC)c1O [Compound 6, 1,3-(2,4,6-trihydroxyphenyl)dibutanone] | > 100 µM | 33.7 ± 2.3% | 
CCCC(=O)c1c(O)cc(O)c(Cc2c(O)cc(O)c(C(=O)CC)c2O)c1O [Compound 13, dryopidin PB] | 18.1 ± 1.5 µM | 93.7 ± 0.3% | Ki [2]: 6.3 µM; Inhibition Type [2]: Competitive
CCCC(=O)c1c(O)c(C)c(O)c(Cc2c(O)c(CC3=C(O)C(C)(C)C(O)=C(C(C)=O)C3=O)c(O)c(C(=O)CCC)c2O)c1O [Compound 27, trisflavaspidic acid ABB] | 7.1 ± 2.6 µM | 101.2 ± 0.6% | Ki [2]: 0.5 µM; Inhibition Type [2]: Competitive; activity toward the PTP1B enzyme (PTP1B enzyme): significant activity
CCCC(=O)C1=C(O)C(C)(C)C(O)=C(Cc2c(O)c(Cc3c(O)c(C)c(O)c(C(=O)CCC)c3O)c(O)c(C(=O)CCC)c2O)C1=O [Compound 28, trisflavaspidic acid BBB] | 5.6 ± 1.1 µM | 106 ± 3.4% | Ki [2]: 2.8 µM; Inhibition Type [2]: Competitive; activity toward the PTP1B enzyme (PTP1B enzyme): significant activity
CCC(=O)c1c(O)c(C)c(O)c(CC2=C(O)C(C)(C)C(O)=C(C(C)=O)C2=O)c1O [Compound 21, flavaspidic acid AP] | > 100 µM | 47.9 ± 4.7% | 
CCCC(=O)c1c(O)c(CC2=C(O)C(C)(C)C(O)=C(C(C)=O)C2=O)c(O)c(C2CCCN2C(=N)N)c1O (centres unmarked) [Compound 25, dryopcrassirine AB] | > 100 µM | 30.7 ± 1.7% | 
O=C(O)[C@@H](O)[C@H]1OC(=O)[C@H](O)[C@H]1O [DSA, D-saccharic acid 1,4-lactone, reference compound] | 23.4 ± 1.5 µM | 79 ± 0.3% | 
CC(=O)C1=C(O)C(C)(C)C(O)=C(Cc2c(O)c(C)c(O)c(C(C)=O)c2O)C1=O [Compound 20, flavaspidic acid AA] | 75.7 ± 1.2 µM | 76.1 ± 3.4% | 
CCCC(=O)c1c(O)c(C)c(O)c(CC2=C(O)C(C)(C)C(O)=C(C(=O)CC)C2=O)c1O [Compound 23, flavaspidic acid PB] | 76.5 ± 1.5 µM | 73.5 ± 0.7% | IC50 [4]: 38.9 µM
CCCC(=O)c1c(O)cc(O)c(Cc2c(O)cc(O)c(C(=O)CCC)c2O)c1O [Compound 14, methylene-bis-phlorobutyrophenone] | 14.4 ± 0.6 µM | 97.1 ± 0.7% | Ki [2]: 4.3 µM; Inhibition Type [2]: Competitive
CCCC(=O)c1c(O)c(CC2=C(O)C(C)(C)C(O)=C(C(C)=O)C2=O)c(O)c(CC2=C(O)C(C)(C)C(O)=C(C(C)=O)C2=O)c1O [Compound 29, filixic acid ABA] | 90.5 ± 2.7 µM | 53.4 ± 2.3% | IC50 [3]: 29.6 µM
CCC(=O)c1c(O)cc(O)c(CC2=C(O)C(C)(C)C(O)=C(C(C)=O)C2=O)c1O [Compound 16, norflavaspidic acid AP] | 64.4 ± 3.5 µM | 68.3 ± 0.2% | 
CCCC(=O)c1c(O)cc(O)c(Cc2c(O)c(C)c(O)c(C(=O)CCC)c2O)c1O [Compound 15, araspidin BB] | 17 ± 2.5 µM | 89.1 ± 0.3% | Ki [2]: 25.8 µM; Inhibition Type [2]: Competitive
CCCC(=O)c1c(O)cc(O)c(CC2=C(O)C(C)(C)C(O)=C(C(C)=O)C2=O)c1O [Compound 17, norflavaspidic acid AB] | 67 ± 1.3 µM | 65.1 ± 0.1% | 
CCCC(=O)c1c(O)c(C(=O)CCC)c(O)c(C(=O)CCC)c1O [Compound 11, tributyrylphloroglucinol] | 43 ± 2.9 µM | 87.3 ± 3.4% | 
CCC(=O)c1c(O)c(C(=O)CC)c(O)c(C(=O)CC)c1O [Compound 10, tripropionylphloroglucinol] | > 100 µM | 41.4 ± 1.7% | 
CCCC(=O)C1=C(O)C(C)(C)C(O)=C(Cc2c(O)cc(O)c(C(=O)CCC)c2O)C1=O [Compound 19, norflavaspidic acid BB] | > 100 µM | 41 ± 1.4% | 
CC(=O)c1c(O)cc(O)c(C(C)=O)c1O [Compound 4, 5-acetyl-2,4,6-trihydroxyacetophenone] | > 100 µM | 22.1 ± 2.4% | 
CCC(=O)c1c(O)cc(O)cc1O [Compound 2, 1-(2,4,6-trihydroxy-phenyl)-propan-1-one] | > 100 µM | 24.4 ± 0.2% | 
CC(=O)c1c(O)cc(O)cc1O [Compound 1, 2,4,6-trihydroxy-acetophenone] | > 100 µM | 11.6 ± 3.9% | 
1-(2, 4, 6-trihydroxy-3-methylphenyl) butanone [Compound 8] |  |  | Inhibition of Compounds on β-glucuronidase, Inhibition at 100 μM (%) [1, 5]: 24.9 ± 5.5%; IC50 [1, 6]: > 100 µM
CCCC(=O)c1c(O)c(C)c(O)c(CC2=C(O)C(C)(C)C(O)=C(C(C)=O)C2=O)c1O [Compound 22, flavaspidic acid AB] | > 100 µM | 48.7 ± 4.8% | 
CCCC(=O)c1c(O)cc(O)cc1O [Compound 3, phlorobutyrophenone] | > 100 µM | 22 ± 2.1% | 
